The values below come from ChEMBL document CHEMBL4152303, “Structure-activity relationships of imidazothiazinones and analogs as antagonists of the cannabinoid-activated orphan G protein-coupled receptor GPR18” (Eur J Med Chem, 2018).

Assay [1] deals with T1, N-arachidonyl glycine receptor (Homo sapiens) (UniProt Q14330).
T1 sequence (whole entry): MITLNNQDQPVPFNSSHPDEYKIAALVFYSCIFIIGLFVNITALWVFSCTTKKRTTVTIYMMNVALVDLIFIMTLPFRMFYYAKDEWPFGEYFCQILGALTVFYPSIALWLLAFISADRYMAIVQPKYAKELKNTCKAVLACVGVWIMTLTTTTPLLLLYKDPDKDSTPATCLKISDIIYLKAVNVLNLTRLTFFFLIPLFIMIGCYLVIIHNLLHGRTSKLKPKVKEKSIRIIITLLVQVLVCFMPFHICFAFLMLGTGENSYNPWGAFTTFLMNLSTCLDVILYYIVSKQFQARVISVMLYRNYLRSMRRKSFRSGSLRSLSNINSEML
Briefly: (§1) Antagonist activity at recombinant human GPR18 expressed in CHO cells assessed as inhibition of delta9-THC-induced beta-arrestin recruitment preincubated for 60 mins followed by delta9-THC addition for 90 mins measured for 1 sec by luminescence assay. It counts as functional, cell-based.

Assay [2] concerns the target T2, N-arachidonyl glycine receptor (Homo sapiens, UniProt Q14330).
T2 sequence (Q14330 whole entry): T1 sequence (whole entry)
The assay is described as §1. The class given is functional, cell-based.

The target in assay [3] is T1, N-arachidonyl glycine receptor (Homo sapiens). Briefly: (§2) Agonist activity at recombinant human GPR18 expressed in CHO cells assessed as increase in beta-arrestin recruitment incubated for 60 mins measured for 1 sec by luminescence assay. The class given is functional, cell-based.
Assay [4] addresses T2, N-arachidonyl glycine receptor. The assay is described as §2. The class given is functional, cell-based.
Assay [5] deals with T3, G-protein coupled receptor 55 (Homo sapiens, UniProt Q9Y2T6). Kind of assay: Antagonist activity at recombinant human GPR55 expressed in CHO cells assessed as inhibition of lysophosphatidylinositol-induced beta-arrestin recruitment preincubated for 60 mins followed by lysophosphatidylinositol addition for 90 mins measured for 1 sec by luminescence assay. It counts as functional, cell-based.

The target of assay [6] is T3, G-protein coupled receptor 55. Briefly: Agonist activity at recombinant human GPR55 expressed in CHO cells assessed as increase in beta-arrestin recruitment incubated for 60 mins measured for 1 sec by luminescence assay. The class given is functional, cell-based.
For another assay, the target named is Cannabinoid receptor 1 (Homo sapiens, UniProt P21554). Briefly: Displacement of [3H]CP55940 from recombinant human CB1 receptor expressed in CHO cell membranes after 2 hrs by liquid scintillation counting method. The note with it: for inhibition: concentration not given here.
The target in the next assay is Cannabinoid receptor 2 (Homo sapiens, UniProt P34972). Briefly: Displacement of [3H]CP55940 from recombinant human CB2 receptor expressed in CHO cell membranes after 2 hrs by liquid scintillation counting method. The arrangement: inhibition: concentration or dose not given beside the values. The note with it: for inhibition: concentration not given here.

The structures appear in SMILES notation. Bounds are passed on as bounds.

T3 sequence (Q9Y2T6 whole entry): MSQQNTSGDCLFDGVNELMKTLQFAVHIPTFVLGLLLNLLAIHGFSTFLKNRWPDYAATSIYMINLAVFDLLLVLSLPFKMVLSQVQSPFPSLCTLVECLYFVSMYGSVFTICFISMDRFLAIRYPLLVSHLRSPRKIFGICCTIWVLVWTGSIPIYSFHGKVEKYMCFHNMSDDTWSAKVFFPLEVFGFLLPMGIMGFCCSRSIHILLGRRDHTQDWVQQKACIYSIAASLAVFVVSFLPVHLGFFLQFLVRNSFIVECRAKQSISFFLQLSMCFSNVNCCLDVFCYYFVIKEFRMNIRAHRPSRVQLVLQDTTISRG
Chain of Cannabinoid receptor 2 (P34972 whole entry): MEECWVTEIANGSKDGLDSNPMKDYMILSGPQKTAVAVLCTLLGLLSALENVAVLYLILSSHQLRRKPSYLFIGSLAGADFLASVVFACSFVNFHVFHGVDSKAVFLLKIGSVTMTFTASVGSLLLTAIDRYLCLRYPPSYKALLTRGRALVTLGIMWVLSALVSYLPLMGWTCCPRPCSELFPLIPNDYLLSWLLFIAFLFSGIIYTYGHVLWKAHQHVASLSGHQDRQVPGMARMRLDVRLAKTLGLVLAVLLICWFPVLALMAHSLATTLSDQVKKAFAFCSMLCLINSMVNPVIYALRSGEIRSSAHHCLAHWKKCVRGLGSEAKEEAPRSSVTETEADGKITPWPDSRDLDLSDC
Chain of Cannabinoid receptor 1 (P21554 whole entry): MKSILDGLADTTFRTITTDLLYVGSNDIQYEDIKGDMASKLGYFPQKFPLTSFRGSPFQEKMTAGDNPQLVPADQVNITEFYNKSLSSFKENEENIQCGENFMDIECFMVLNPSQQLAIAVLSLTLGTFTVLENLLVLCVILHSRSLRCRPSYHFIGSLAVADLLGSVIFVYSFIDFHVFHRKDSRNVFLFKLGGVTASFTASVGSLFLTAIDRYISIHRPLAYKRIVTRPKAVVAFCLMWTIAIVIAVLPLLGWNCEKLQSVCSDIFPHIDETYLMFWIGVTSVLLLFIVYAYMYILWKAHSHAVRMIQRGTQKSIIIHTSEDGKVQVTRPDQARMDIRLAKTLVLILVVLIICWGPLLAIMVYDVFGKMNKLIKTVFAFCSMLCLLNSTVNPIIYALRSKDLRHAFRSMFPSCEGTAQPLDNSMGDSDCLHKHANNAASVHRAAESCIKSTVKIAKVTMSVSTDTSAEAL

As to `CSC1=NC(=O)/C(=C/c2cccc(OCc3ccc(Cl)cc3)c2)N1`, the Imax in assay [1] is 71%; in assay [5], 47%; on Cannabinoid receptor 2, 73%. The IC50 was 13.8 µM in assay [2] and over 10 µM in assay [5]. Besides, the results for the %max in assay [3] and in assay [6] were 31% and 18%, respectively. Also, the EC50 in assay [4] and in assay [6] was over 10 µM each time. Also, the inhibition constant Ki on Cannabinoid receptor 1 was 2.21 µM; on Cannabinoid receptor 2 it was 0.591 µM.

Regarding `O=C1NC(=S)S/C1=C\c1cccc(OCc2ccc(Cl)cc2)c1`, the results for the Imax in assay [1] and in assay [5] were 22% and -18%, respectively. In addition, the IC50 in assay [2] and in assay [5] was over 10 µM each time. Besides, the %max in assay [3] was -38%; in assay [6], 29%. For the same compound, the concentration for a half-maximal effect (EC50) in assay [4] and in assay [6] was over 10 µM in each case. Further, the Ki at Cannabinoid receptor 1 and on Cannabinoid receptor 2 was over 10 µM in each case. Further, the inhibition at Cannabinoid receptor 1 came to 47%; on Cannabinoid receptor 2, 26%.

Consider `O=C1NC(SCCc2ccccc2)=N/C1=C\c1cccc(OCc2ccc(Cl)cc2)c1`, for which the results for the Imax in assay [1] and in assay [5] were 103% and 27%, respectively. Further, the IC50 in assay [2] is 4.78 µM; in assay [5], over 10 µM. Also, the %max in assay [3] amounted to 2%; in assay [6], 21%. The EC50 in assay [4] and in assay [6] was over 10 µM in each case. For the same compound, the Ki on Cannabinoid receptor 1 and on Cannabinoid receptor 2 was over 10 µM each time. Also, the inhibition was found to be 18% on Cannabinoid receptor 1 and 33% at Cannabinoid receptor 2.

Consider `O=C1/C(=C/c2cccc(OCCOc3ccc(Cl)cc3)c2)N=C2SCCCN12`, for which the results for the Imax in assay [1] and in assay [5] were 123% and 99%, respectively. The IC50 amounted to 5 µM in assay [2] and 10.1 µM in assay [5]. For the same compound, the %max in assay [3] is -10%; in assay [6], -20%. For the same compound, the EC50 in assay [4] and in assay [6] was over 10 µM in each case. The Ki at Cannabinoid receptor 1 and on Cannabinoid receptor 2 was over 10 µM in each case. For the same compound, the figures for the inhibition at Cannabinoid receptor 1 and on Cannabinoid receptor 2 were 21% and -9%, respectively.

`O=C1/C(=C/c2cccc(OCCc3ccccc3)c2)N=C2SCCCN12`: the Imax was 16% in assay [1] and 130% in assay [5]. The IC50 in assay [2] was over 10 µM; in assay [5] it was 29.3 µM. Besides, the %max is 8% in assay [3] and -42% in assay [6]. In addition, the EC50 in assay [4] and in assay [6] was over 10 µM throughout. In addition, the Ki on Cannabinoid receptor 1 and on Cannabinoid receptor 2 was over 10 µM in each case. Further, the inhibition on Cannabinoid receptor 1 is 24%; at Cannabinoid receptor 2 it was 19%.

For `O=C1NC(=O)/C(=C/c2cccc(OCc3ccc(Cl)cc3)c2)S1`, the Imax in assay [1] was -10%; in assay [5], -1%; on Cannabinoid receptor 1, 67%. The IC50 in assay [2] and in assay [5] was over 10 µM each time. Besides, the values for the %max in assay [3] and in assay [6] were -1% and 22%, respectively. The EC50 in assay [4] and in assay [6] was over 10 µM throughout. The Ki on Cannabinoid receptor 1 was 5.04 µM; at Cannabinoid receptor 2 it was over 10 µM. Further, the inhibition at Cannabinoid receptor 2 was 41%.

In the case of `O=C1NC(SCc2ccccc2)=N/C1=C\c1cccc(OCc2ccc(Cl)cc2)c1`, the Imax was 3% in assay [1] and 17% in assay [5]. Moreover, the 50% inhibitory concentration (IC50) in assay [2] and in assay [5] was over 10 µM in each case. The results for the %max in assay [3] and in assay [6] were -17% and 21%, respectively. The EC50 in assay [4] and in assay [6] was over 10 µM throughout. For the same compound, the Ki at Cannabinoid receptor 1 and on Cannabinoid receptor 2 was over 10 µM in each case. For the same compound, the figures for the inhibition at Cannabinoid receptor 1 and at Cannabinoid receptor 2 were 11% and 46%, respectively.

In the case of `O=C1NC(=S)N/C1=C\c1cccc(OCc2ccc(Cl)cc2)c1`, the Imax was 165% in assay [1] and 118% in assay [5]. Moreover, the IC50 amounted to 33 µM in assay [2] and 32.4 µM in assay [5]. Besides, the %max was -14% in assay [3] and 5% in assay [6]. In addition, the EC50 in assay [4] and in assay [6] was over 10 µM in each case. Also, the inhibition constant (Ki) at Cannabinoid receptor 1 and on Cannabinoid receptor 2 was over 10 µM each time. In addition, the inhibition on Cannabinoid receptor 1 is 30%; at Cannabinoid receptor 2 it was 19%.

Turning to `CCc1ccc(OCCCCCCOc2cccc(/C=C3\N=C4SCCCN4C3=O)c2)cc1`, the Imax in assay [1] amounted to 99%; in assay [5], 37%. The IC50 in assay [2] is 25 µM; in assay [5], over 10 µM. The %max came to 0% in assay [3] and 47% in assay [6]. In addition, the EC50 in assay [4] and in assay [6] was over 10 µM throughout. The Ki at Cannabinoid receptor 1 and at Cannabinoid receptor 2 was over 10 µM throughout. Further, the inhibition at Cannabinoid receptor 1 and at Cannabinoid receptor 2 was 13% in each case.

`O=C1/C(=C/c2cccc(OCc3ccc(Br)cc3)c2)N=C2SCCCN12`: the Imax amounted to 74% in assay [1] and 116% in assay [5]. In addition, the values for the IC50 in assay [2] and in assay [5] were 1.73 µM and 45.8 µM, respectively. Further, the %max is -9% in assay [3] and -19% in assay [6]. In addition, the EC50 in assay [4] and in assay [6] was over 10 µM each time. In addition, the Ki on Cannabinoid receptor 1 and at Cannabinoid receptor 2 was over 10 µM throughout. Moreover, the inhibition on Cannabinoid receptor 1 and at Cannabinoid receptor 2 was 4% in each case.

`Cc1ccc(COc2cccc(/C=C3\N=C4SCCCN4C3=O)c2)cc1`: the Imax came to 61% in assay [1] and 134% in assay [5]. The IC50 in assay [2] is 3.59 µM; in assay [5] it was 9.45 µM. Besides, the figures for the %max in assay [3] and in assay [6] were 2% and -31%, respectively. For the same compound, the EC50 in assay [4] and in assay [6] was over 10 µM each time. The Ki at Cannabinoid receptor 1 and on Cannabinoid receptor 2 was over 10 µM throughout. Also, the values for the inhibition on Cannabinoid receptor 1 and on Cannabinoid receptor 2 were 22% and 25%, respectively.

`CN1C(=N)NC(=O)/C1=C/c1cccc(OCc2ccc(Cl)cc2)c1`: the Imax in assay [1] was 4%; in assay [5] it was -5%. Also, the IC50 in assay [2] and in assay [5] was over 10 µM throughout. The %max in assay [3] came out at 6%; in assay [6], 22%. Further, the EC50 in assay [4] and in assay [6] was over 10 µM each time. The values for the Ki at Cannabinoid receptor 1 and at Cannabinoid receptor 2 were over 10 µM and 22.8 µM, respectively. Also, on Cannabinoid receptor 1, the inhibition worked out at 43%.

Consider `O=C1/C(=C/c2cccc(OCCCCCCCOc3ccc(Cl)cc3)c2)N=C2SCCCN12`, for which the Imax is 97% in assay [1] and 16% in assay [5]. The results for the IC50 in assay [2] and in assay [5] were 1.71 µM and over 10 µM, respectively. For the same compound, the results for the %max in assay [3] and in assay [6] were 3% and 34%, respectively. The EC50 in assay [4] and in assay [6] was over 10 µM in each case. Besides, the Ki at Cannabinoid receptor 1 and on Cannabinoid receptor 2 was over 10 µM throughout. The inhibition on Cannabinoid receptor 1 was found to be 46%; at Cannabinoid receptor 2, 15%.

Regarding `CSC1=N/C(=C\c2cccc(OCc3ccc(Cl)cc3)c2)C(=O)N1C`, the Imax was 23% in assay [1] and 35% in assay [5]. Moreover, the 50% inhibitory concentration (IC50) in assay [2] and in assay [5] was over 10 µM each time. Also, the %max in assay [3] and in assay [6] was -2% in each case. Further, the EC50 in assay [4] and in assay [6] was over 10 µM throughout. For the same compound, the Ki on Cannabinoid receptor 1 and on Cannabinoid receptor 2 was over 10 µM in each case. For the same compound, the values for the inhibition at Cannabinoid receptor 1 and on Cannabinoid receptor 2 were 19% and 24%, respectively.

On to `O=C1NC(SCc2ccc(F)cc2)=N/C1=C\c1cccc(OCc2ccc(Cl)cc2)c1`, for which the figures for the Imax in assay [1] and in assay [5] were 27% and 44%, respectively. The IC50 in assay [2] and in assay [5] was over 10 µM in each case. The %max in assay [3] was 23%; in assay [6], -21%. In addition, the EC50 in assay [4] and in assay [6] was over 10 µM throughout. The Ki on Cannabinoid receptor 1 and on Cannabinoid receptor 2 was over 10 µM in each case. Besides, the inhibition was found to be 42% on Cannabinoid receptor 1 and 19% on Cannabinoid receptor 2.

Take `O=C1/C(=C/c2cccc(OCCCCOc3ccc(Cl)cc3)c2)N=C2SCCCN12`: the Imax is 116% in assay [1] and 26% in assay [5]. The half-inhibitory concentration (IC50) was 2.38 µM in assay [2] and over 10 µM in assay [5]. Moreover, the %max in assay [3] is -16%; in assay [6] it was 11%. Moreover, the EC50 in assay [4] and in assay [6] was over 10 µM throughout. Moreover, the inhibition constant (Ki) at Cannabinoid receptor 1 and at Cannabinoid receptor 2 was over 10 µM each time. Also, the inhibition on Cannabinoid receptor 2 was determined as 3%.

In the case of `O=C1/C(=C/c2cccc(OCCCCCCOc3cccc(Cl)c3)c2)N=C2SCCCN12`, the Imax in assay [1] was determined as 55%; in assay [5], 37%. Also, the %max turned out to be 0% in assay [3] and 28% in assay [6]. Moreover, the concentration giving a half-maximal response (EC50) in assay [4] and in assay [6] was over 10 µM each time. Further, in assay [5], the IC50 is over 10 µM. In addition, the Ki at Cannabinoid receptor 1 and at Cannabinoid receptor 2 was over 10 µM in each case. Further, the inhibition at Cannabinoid receptor 1 is 33%; at Cannabinoid receptor 2, 46%.
